# Results: ChEMBL document CHEMBL4428041, “Identification and SAR Evaluation of Hemozoin-Inhibiting Benzamides Active against Plasmodium falciparum” (J Med Chem, 2016)
# Active and inactive are the calls of the source. The rule behind the calls is not given here.
# Legend:
# Hemozoin [1] = experiment: Inhibition of beta-hematin in water/NP40/DMSO solution incubated for 5 to 6hrs by detergent-mediated pyridine-ferrichrome method
# Plasmodium falciparum [2] = experiment: Antimalarial activity against CQ-sensitive Plasmodium falciparum NF54 infected in human type O+ erythrocytes assessed as growth inhibition incubated for 48 hrs by LDH assay; format: functional, organism-based; conditions: NF54, 48 h
# Hemozoin [3] = experiment: Inhibition of hemozoin formation in CQ-sensitive Plasmodium falciparum D10 infected in human type O+ erythrocytes assessed as increase in free heme at 0.5 to 4 times beta-hematin IC50 incubated for 32 hrs by cell fractionation assay; format: cell-based; conditions: Erythrocyte
# Hemozoin [4] = experiment: Inhibition of hemozoin formation in CQ-sensitive Plasmodium falciparum D10 infected in human type O+ erythrocytes assessed as decrease in hemozoin formation at 0.5 to 4 times beta-hematin IC50 incubated for 32 hrs by cell fractionation assay; format: cell-based; conditions: Erythrocyte
# Ferriprotoporphyrin IX [5] = test system: Ferriprotoporphyrin IX
# Description: Binding affinity to Fe(3)PP9 in hematin solution at pH 7.5 by titration-based UV-vis spectrophotometrical analysis
# Plasmodium falciparum [6] = experiment: Antimalarial activity against CQ-sensitive Plasmodium falciparum D10 infected in human type O+ erythrocytes assessed as growth inhibition incubated for 48 hrs by LDH assay; format: functional, organism-based; conditions: D10, 48 h
# [7] = Kinetic solubility of compound at pH 2 after 2 hrs by shake flask assay; format: physicochemical; conditions: buffer, read-out: Kinetic_solubility
# [8] = Kinetic solubility of compound in at pH 6.5 after 2 hrs by shake flask assay; format: physicochemical; conditions: buffer, read-out: Kinetic_solubility
# [9] = Kinetic solubility of compound FaSSIF at pH 6.5 after 2 hrs by shake flask assay; format: physicochemical; conditions: read-out: Kinetic_solubility
# [10] = Half life in human liver microsomes at 0.1 uM in presence of NADPH by LC-MS/MS analysis; format: ADME, Microsome
# [11] = Half life in rat liver microsomes at 0.1 uM in presence of NADPH by LC-MS/MS analysis; format: ADME, Microsome
# [12] = Half life in mouse liver microsomes at 0.1 uM in presence of NADPH by LC-MS/MS analysis; format: ADME, Microsome
# [13] = Clearance in human liver microsomes assessed per mg of protein at 0.1 uM by LC-MS/MS analysis; format: ADME, Microsome; conditions: read-out: CLH
# [14] = Clearance in rat liver microsomes assessed per mg of protein at 0.1 uM by LC-MS/MS analysis; format: ADME, Microsome; conditions: read-out: CLH
# [15] = Clearance in mouse liver microsomes assessed per mg of protein at 0.1 uM by LC-MS/MS analysis; format: ADME, Microsome; conditions: read-out: CLH
# CHO = experiment: Cytotoxicity against CHO cells by MTT assay; format: cell-based; conditions: Cricetulus griseus
# Hemozoin [16] = experiment: Inhibition of beta-hematin incubated for 6 hrs by NP40 detergent-mediated assay
# Plasmodium falciparum [17] = experiment: Antimalarial activity against Plasmodium falciparum D6 infected in red blood cells assessed as growth inhibition by SYBR green1 fluorescence-based assay; format: functional, organism-based
# Ferriprotoporphyrin IX [18] = experiment: Binding affinity to Fe(3)PP9 solution assessed as ferriprotoporphyrin 9 complex formation by measuring pink precipitate formation at <=5500 uM
# Ferriprotoporphyrin IX [19] = experiment: Binding affinity to Fe(3)PP9 solution assessed as ferriprotoporphyrin 9 complex formation by measuring compound concentration causing pink precipitate formation at <=5500 uM
# Hemozoin [20] = experiment: Inhibition of hemozoin formation in CQ-sensitive Plasmodium falciparum D10 infected in human type O+ erythrocytes assessed as increase in free heme incubated for 32 hrs by cell fractionation assay; format: cell-based; conditions: Erythrocyte
# Hemozoin [21] = experiment: Inhibition of hemozoin formation in CQ-sensitive Plasmodium falciparum D10 infected in human type O+ erythrocytes assessed as decrease in hemozoin formation incubated for 32 hrs by cell fractionation assay; format: cell-based; conditions: Erythrocyte
# Hemozoin [22] = experiment: Inhibition of hemozoin formation in Plasmodium falciparum trophozoites infected in human erythrocytes assessed as induction of irregularly scattered and shapeless hemozoin clumps inside swollen digestive vacuole at 0.22 ug/ml incubated for 32 hrs by transmission electron microscopic analysis relative to control; format: cell-based; conditions: Erythrocyte
# [23] = Extraction ratio in human liver microsomes assessed per mg of protein at 0.1 uM by LC-MS/MS analysis; format: ADME, Microsome; conditions: read-out: ERH
# [24] = Extraction ratio in rat liver microsomes assessed per mg of protein at 0.1 uM by LC-MS/MS analysis; format: ADME, Microsome; conditions: read-out: ERH
# [25] = Extraction ratio in mouse liver microsomes assessed per mg of protein at 0.1 uM by LC-MS/MS analysis; format: ADME, Microsome; conditions: read-out: ERH
# Plasmodium falciparum [26] = experiment: Antimalarial activity against CQ-resistant Plasmodium falciparum K1 infected in human type O+ erythrocytes assessed as growth inhibition incubated for 48 hrs by LDH assay; format: functional, organism-based; conditions: K1, 48 h
# [27] = Selectivity index, ratio of IC50 for cytotoxicity against CHO cells to IC50 for CQ-sensitive Plasmodium falciparum NF54 infected in human type O+ erythrocytes; format: toxicity, cell-based; conditions: Chinese hamster, read-out: Ratio IC50
# Plasmodium falciparum [28] = experiment: Antimalarial activity against CQ-sensitive Plasmodium falciparum D10 infected in human type O+ erythrocytes assessed as growth inhibition up to 249 uM incubated for 48 hrs by LDH assay; format: functional, organism-based
# Plasmodium falciparum [29] = experiment: Antimalarial activity against CQ-sensitive Plasmodium falciparum NF54 infected in human type O+ erythrocytes assessed as growth inhibition up to 249 uM incubated for 48 hrs by LDH assay; format: functional, organism-based
# Hemozoin [30] = experiment: Inhibition of hemozoin formation in CQ-sensitive Plasmodium falciparum D10 infected in human type O+ erythrocytes assessed as free heme level at beta-hematin IC50 incubated for 32 hrs by cell fractionation assay (reference value: 7%); format: cell-based; parameters: scale not given: the % may be the effect or the level left; conditions: Erythrocyte
# Hemozoin [31] = experiment: Inhibition of hemozoin formation in CQ-sensitive Plasmodium falciparum D10 infected in human type O+ erythrocytes assessed as hemozoin level at beta-hematin IC50 incubated for 32 hrs by cell fractionation assay (reference value: 89%); format: cell-based; parameters: scale not given: the % may be the effect or the level left; conditions: Erythrocyte
structure (smiles),measurement,setting,value
CC(C)(C)c1cc(C(=O)Nc2ccccc2)cc(C(=O)Nc2ccccc2)c1,IC50,Hemozoin [1],> 1000 µM
same,IC50,Plasmodium falciparum [2],8.1 µM
same,inhibition,Hemozoin [3],inactive
same,inhibition,Hemozoin [4],inactive
Cc1cc(C(=O)Nc2ccncc2)cc(C(=O)Nc2ccncc2)c1,IC50,Hemozoin [1],8 µM
same,IC50,Plasmodium falciparum [2],2.5 µM
same,log K,Ferriprotoporphyrin IX [5],3.92
O=C(Nc1ccccc1)c1cccc(C(=O)Nc2ccccc2)n1,IC50,Hemozoin [1],> 1000 µM
same,IC50,Plasmodium falciparum [2],> 315 µM
CC(C)(C)c1cc(C(=O)Nc2ccncc2)cc(C(=O)Nc2ccncc2)c1,IC50,Hemozoin [1],13.3 µM
same,IC50,Plasmodium falciparum [2],1.6 µM
O=C(Nc1ccncc1)c1cc(C(=O)Nc2ccncc2)cc([N+](=O)[O-])c1,IC50,Hemozoin [1],4.3 µM
same,IC50,Plasmodium falciparum [6],900 nM
same,IC50,Plasmodium falciparum [2],0.7 µM
same,solubility kinetic at 2 h,[7],200 µM
same,solubility kinetic at 2 h,[8],< 5 µM
same,solubility kinetic at 2 h,[9],13 µM
same,half-life at 0.1 µM,[10],> 150 min
same,half-life at 0.1 µM,[11],> 150 min
same,half-life at 0.1 µM,[12],> 150 min
same,microsomal CLint at 0.1 µM,[13],< 11.6 µL/min/mg
same,microsomal CLint at 0.1 µM,[14],< 11.6 µL/min/mg
same,microsomal CLint at 0.1 µM,[15],< 11.6 µL/min/mg
same,IC50,CHO,> 275 µM
same,IC50,Hemozoin [16],5.86 µM
same,IC50,Plasmodium falciparum [17],190 nM
Cc1cc(C(=O)Nc2ccccc2)cc(C(=O)Nc2ccccc2)c1,IC50,Hemozoin [1],> 1000 µM
same,IC50,Plasmodium falciparum [2],146 µM
O=C(Nc1ccccc1)c1ccc([N+](=O)[O-])cc1,IC50,Hemozoin [1],> 5500 µM
same,Activity,Ferriprotoporphyrin IX [18],inactive
same,Activity,Ferriprotoporphyrin IX [19],inactive
O=C(Nc1ccncc1)c1cccc(C(=O)Nc2ccncc2)n1,IC50,Hemozoin [1],260 µM
same,IC50,Plasmodium falciparum [2],> 315 µM
N#Cc1cc(C(=O)Nc2ccccc2)cc(C(=O)Nc2ccccc2)c1,IC50,Hemozoin [1],4.4 µM
same,IC50,Plasmodium falciparum [6],5200 nM
CC(C)(C)c1cc(C(=O)Nc2cccnc2)cc(C(=O)Nc2cccnc2)c1,IC50,Hemozoin [1],6.8 µM
same,IC50,Plasmodium falciparum [6],700 nM
same,IC50,Plasmodium falciparum [2],0.6 µM
same,inhibition,Hemozoin [20],Dose-dependent effect
same,inhibition,Hemozoin [21],Dose-dependent effect
same,Activity,Hemozoin [22],Active
same,solubility kinetic at 2 h,[7],197 µM
same,solubility kinetic at 2 h,[8],92.7 µM
same,solubility kinetic at 2 h,[9],154 µM
same,half-life at 0.1 µM,[10],142 min
same,half-life at 0.1 µM,[11],93.2 min
same,half-life at 0.1 µM,[12],52.4 min
same,microsomal CLint at 0.1 µM,[13],14.1 µL/min/mg
same,microsomal CLint at 0.1 µM,[14],33.5 µL/min/mg
same,microsomal CLint at 0.1 µM,[15],130 µL/min/mg
same,hepatic extraction ratio at 0.1 µM,[23],0.4
same,hepatic extraction ratio at 0.1 µM,[24],0.4
same,hepatic extraction ratio at 0.1 µM,[25],0.6
same,IC50,Plasmodium falciparum [26],1700 nM
same,IC50,CHO,185 µM
same,selectivity ratio,[27],308
Nc1ccnc2cc(Cl)ccc12,log K,Ferriprotoporphyrin IX [5],4.43
O=C(Nc1ccncc1)c1cccc(Cl)c1,Activity,Ferriprotoporphyrin IX [19],1300 to 2300 µM
C=C[C@H]1CN2CC[C@H]1C[C@@H]2[C@@H](O)c1ccnc2ccc(OC)cc12,log K,Ferriprotoporphyrin IX [5],5.26
O=C(Nc1ccccc1)c1cc(C(=O)Nc2ccccc2)cc(C(=O)Nc2ccccc2)c1,IC50,Hemozoin [1],21 µM
same,IC50,Plasmodium falciparum [6],> 42000 nM
same,IC50,Plasmodium falciparum [2],81 µM
O=C(Nc1cccnc1)c1cc(C(=O)Nc2cccnc2)cc([N+](=O)[O-])c1,IC50,Hemozoin [1],4.7 µM
same,IC50,Plasmodium falciparum [2],1.32 µM
O=C(Nc1ccncc1)c1cccc(C(F)(F)F)c1,Activity,Ferriprotoporphyrin IX [19],1300 to 2300 µM
O=C(Nc1ccncc1)c1ccc([N+](=O)[O-])cc1[N+](=O)[O-],IC50,Hemozoin [1],> 5500 µM
same,Activity,Ferriprotoporphyrin IX [18],inactive
same,Activity,Ferriprotoporphyrin IX [19],inactive
N#Cc1cc(C(=O)Nc2ccncc2)cc(C(=O)Nc2ccncc2)c1,IC50,Hemozoin [1],6.34 µM
same,IC50,Plasmodium falciparum [6],2000 nM
same,IC50,Plasmodium falciparum [2],1.9 µM
O=C(Nc1ccncc1)c1ccc(Cl)c(Cl)c1,Activity,Ferriprotoporphyrin IX [19],700 to 1300 µM
CCN(CC)CCCC(C)Nc1ccnc2cc(Cl)ccc12 (stereo not given) [CHLOROQUINE],IC50,Hemozoin [1],31.5 µM
O=C(Nc1ccccc1)c1cccc(C(=O)Nc2ccccc2)c1,IC50,Hemozoin [1],> 1000 µM
same,IC50,Plasmodium falciparum [2],> 314 µM
O=C(Nc1ccccc1)c1cc([N+](=O)[O-])cc([N+](=O)[O-])c1,IC50,Hemozoin [1],22 µM
same,IC50,Plasmodium falciparum [2],5 µM
COc1cc(C(=O)Nc2ccccc2)cc(C(=O)Nc2ccccc2)c1,IC50,Hemozoin [1],> 1000 µM
same,IC50,Plasmodium falciparum [2],37 µM
O=C(Nc1ccccc1)c1ccccc1[N+](=O)[O-],IC50,Hemozoin [1],> 1000 µM
same,IC50,Plasmodium falciparum [2],> 41.3 µM
O=C(Nc1ccncc1)c1cc([N+](=O)[O-])cc([N+](=O)[O-])c1,IC50,Hemozoin [1],10.9 µM
same,IC50,Plasmodium falciparum [6],2400 nM
same,IC50,Plasmodium falciparum [2],2.3 µM
same,IC50,Hemozoin [16],9.04 µM
same,IC50,Plasmodium falciparum [17],4760 nM
O=C(Nc1ccccn1)c1cc([N+](=O)[O-])cc([N+](=O)[O-])c1,IC50,Hemozoin [1],134 µM
same,IC50,Plasmodium falciparum [6],24000 nM
same,IC50,Plasmodium falciparum [2],22 µM
O=C(Nc1ccncc1)c1ccccc1,IC50,Hemozoin [1],> 5500 µM
same,Activity,Ferriprotoporphyrin IX [18],inactive
same,Activity,Ferriprotoporphyrin IX [19],inactive
O=C(Nc1ccncc1)c1ccc(Cl)cc1,Activity,Ferriprotoporphyrin IX [19],4500 to 5500 µM
COc1ccc(C(=O)Nc2ccncc2)cc1,IC50,Hemozoin [1],> 5500 µM
same,Activity,Ferriprotoporphyrin IX [18],inactive
same,Activity,Ferriprotoporphyrin IX [19],inactive
O=C(Nc1ccncc1)c1ccc([N+](=O)[O-])cc1,IC50,Hemozoin [1],> 5500 µM
same,Activity,Ferriprotoporphyrin IX [18],inactive
same,Activity,Ferriprotoporphyrin IX [19],inactive
O=C(Nc1ccncc1)c1cccc(C(=O)Nc2ccncc2)c1,IC50,Hemozoin [1],507 µM
same,IC50,Plasmodium falciparum [2],9 µM
O=C(Nc1ccccc1)c1cc(C(=O)Nc2nc3ccccc3[nH]2)cc([N+](=O)[O-])c1,IC50,Hemozoin [1],68 µM
same,Activity,Plasmodium falciparum [28],inactive
same,Activity,Plasmodium falciparum [29],inactive
Cc1ccc(C(=O)Nc2ccncc2)cc1,IC50,Hemozoin [1],> 5500 µM
same,Activity,Ferriprotoporphyrin IX [18],inactive
same,Activity,Ferriprotoporphyrin IX [19],inactive
CN(C)Cc1ccc(NC(=O)c2cc(C(=O)Nc3ccc(CN(C)C)cc3)cc([N+](=O)[O-])c2)cc1,IC50,Hemozoin [1],7.9 µM
same,IC50,Plasmodium falciparum [2],1.5 µM
same,Activity,Hemozoin [30],41%
same,Activity,Hemozoin [31],53%
COc1cc(C(=O)Nc2ccncc2)cc(C(=O)Nc2ccncc2)c1,IC50,Hemozoin [1],22 µM
same,IC50,Plasmodium falciparum [2],3 µM
O=C(Nc1cccnc1)c1cc([N+](=O)[O-])cc([N+](=O)[O-])c1,IC50,Hemozoin [1],13 µM
same,IC50,Plasmodium falciparum [6],2300 nM
same,IC50,Plasmodium falciparum [2],5 µM
same,inhibition,Hemozoin [20],Dose-dependent effect
same,inhibition,Hemozoin [21],Dose-dependent effect
O=C(Nc1ccccc1)c1cc(C(=O)Nc2ccccc2)cc([N+](=O)[O-])c1,IC50,Hemozoin [1],7 µM
same,IC50,Plasmodium falciparum [2],1.4 µM
